The record followed here is patent US12122761B2, “2-azaspiro[3.4]octane derivatives as M4 agonists” (NOVARTIS AG, priority 2019, dated 2024).

A word on the EC50: it is the concentration at which the effect is half-maximal. A lower EC50 goes with higher potency in that assay.

For the experiment, the target named is T1, Cloned human M1 receptor (CHRM1) stably expressed in HEK293 cells (Homo sapiens, UniProt P11229).
T1 construct: expressed in transfected cells; host or cells: HEK293
T1 sequence (P11229 1-460): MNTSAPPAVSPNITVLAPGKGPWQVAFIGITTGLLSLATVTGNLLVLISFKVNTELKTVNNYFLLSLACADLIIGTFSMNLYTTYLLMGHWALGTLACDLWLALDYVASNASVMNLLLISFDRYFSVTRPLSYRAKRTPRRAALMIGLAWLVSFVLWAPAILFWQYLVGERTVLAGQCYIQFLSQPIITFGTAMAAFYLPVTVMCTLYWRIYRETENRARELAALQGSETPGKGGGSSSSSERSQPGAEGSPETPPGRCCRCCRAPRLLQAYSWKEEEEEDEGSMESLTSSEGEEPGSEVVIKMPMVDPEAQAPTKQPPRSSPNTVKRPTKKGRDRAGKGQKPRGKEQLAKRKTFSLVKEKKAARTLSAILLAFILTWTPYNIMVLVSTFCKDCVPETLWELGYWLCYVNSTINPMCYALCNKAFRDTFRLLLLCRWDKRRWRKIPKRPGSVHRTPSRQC
Put plainly: CHRM1 Ca++ Flux Assay (agonist mode, FDSS 7000EX). The class given is cell-based. The note with it: for Emax: HEK293, Percent Activity, read-out: M1 FDSS PA; for EC50: geometric mean if tested more than once. Summed up:
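Compounds tested as agonists at 11 concentrations in triplicate, with calcium traces captured over 3 minutes. Cells were HEK293 with stable human CHRM1 expression, plated overnight at 25K/well and loaded with calcium dye. Responses normalized to carbachol EC100 and fitted by four-parameter nonlinear regression.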

With `c1ccc(C2CCN([C@@H]3CCC4(C3)CN(c3nnco3)C4)CC2)c(OC[C@H]2COCCO2)c1` [Example 1C, 2-((R)-6-(4-(2-(((R)-1,4-dioxan-2-yl)methoxy)phenyl)piperidin-1-yl)-2-azaspiro[3.4]octan-2-yl)-1,3,4-oxadiazole], the Emax stood at 85% and it took 56 nM to reach a half-maximal effect (EC50).
The corresponding values for `Cc1coc(N2CC3(CC[C@@H](N4CCC(c5ccc(F)cc5OCC(C)(C)O)CC4)C3)C2)n1` [Example 3N, (R)-1-(5-fluoro-2-(1-(2-(4-methyloxazol-2-yl)-2-azaspiro[3.4]octan-6-yl)piperidin-4-yl)phenoxy)-2-methylpropan-2-ol] are 0% and over 25000 nM.
Take `Cc1coc(N2CC3(CC[C@@H](N4CCC(c5ccccc5OCC(C)(C)O)CC4)C3)C2)n1` [Example 3O, (R)-2-methyl-1-(2-(1-(2-(4-methyloxazol-2-yl)-2-azaspiro[3.4]octan-6-yl)piperidin-4-yl)phenoxy)propan-2-ol]: the Emax is 0% and the EC50 is over 25000 nM.
With `COc1ccccc1C1CCN([C@@H]2CCC3(C2)CN(c2ncon2)C3)CC1` [Example 4A, (R)-3-(6-(4-(2-methoxyphenyl)piperidin-1-yl)-2-azaspiro[3.4]octan-2-yl)-1,2,4-oxadiazole], the Emax was found to be 83% and a half-maximal effect (EC50) was put at 15 nM.
In the same order, the values of `COc1ccccc1C1CCN([C@@H]2CCC3(C2)CN(c2cncnc2)C3)CC1` [Example 5A, (R)-6-(4-(2-methoxyphenyl)piperidin-1-yl)-2-(pyrimidin-5-yl)-2-azaspiro[3.4]octane] are 64% and 105 nM.
In the same order, the values of `CC(C)(O)COc1ccccc1C1CCN([C@@H]2CCC3(C2)CN(c2cncnc2)C3)CC1` [Example 5B, (R)-2-methyl-1-(2-(1-(2-(pyrimidin-5-yl)-2-azaspiro[3.4]octan-6-yl)piperidin-4-yl)phenoxy)propan-2-ol] are 35% and 191 nM.
In the same order, the values of `Cc1ncncc1N1CC2(CC[C@@H](N3CCC(c4ccccc4OCC(C)(C)O)CC3)C2)C1` [Example 5C, (R)-2-methyl-1-(2-(1-(2-(4-methylpyrimidin-5-yl)-2-azaspiro[3.4]octan-6-yl)piperidin-4-yl)phenoxy)propan-2-ol] are 69% and 420 nM.
`COc1ccccc1C1CCN([C@@H]2CCC3(C2)CN(c2ccc(C)nc2)C3)CC1` [Example 5D, (R)-6-(4-(2-methoxyphenyl)piperidin-1-yl)-2-(6-methylpyridin-3-yl)-2-azaspiro[3.4]octane]: the Emax amounted to 0% and the EC50 was over 25000 nM.
With `COc1ccccc1C1CCN([C@@H]2CCC3(C2)CN(c2cnc(C)nc2)C3)CC1` [Example 5E, (R)-6-(4-(2-methoxyphenyl)piperidin-1-yl)-2-(2-methylpyrimidin-5-yl)-2-azaspiro[3.4]octane], the Emax was determined as 0% and the EC50 was over 25000 nM.
On to `COc1ccccc1C1CCN([C@@H]2CCC3(C2)CN(c2cncc(F)c2)C3)CC1` [Example 5F, (R)-2-(5-fluoropyridin-3-yl)-6-(4-(2-methoxyphenyl)piperidin-1-yl)-2-azaspiro[3.4]octane], for which the Emax worked out at 7% and the midpoint of the response, the EC50, lay at 3760 nM.
`COc1ccccc1C1CCN([C@@H]2CCC3(C2)CN(c2cncc(C)n2)C3)CC1` [Example 5G, (R)-6-(4-(2-methoxyphenyl)piperidin-1-yl)-2-(6-methylpyrazin-2-yl)-2-azaspiro[3.4]octane]: the Emax was determined as 0% and the EC50 is over 25000 nM.
As to `COc1ccccc1C1CCN([C@@H]2CCC3(C2)CN(c2cnccn2)C3)CC1` [Example 5H, (R)-6-(4-(2-methoxyphenyl)piperidin-1-yl)-2-(pyrazin-2-yl)-2-azaspiro[3.4]octane], the Emax was determined as 50% and the EC50 was 48 nM.
Regarding `COc1ccccc1C1CCN([C@@H]2CCC3(C2)CN(c2nccnc2C(F)(F)F)C3)CC1` [Example 5I, (R)-6-(4-(2-methoxyphenyl)piperidin-1-yl)-2-(3-(trifluoromethyl)pyrazin-2-yl)-2-azaspiro[3.4]octane], the Emax came out at 55% and the EC50 turned out to be 272 nM.
`COc1ccccc1C1CCN([C@@H]2CCC3(C2)CN(c2nccnc2C)C3)CC1` [Example 5J, (R)-6-(4-(2-methoxyphenyl)piperidin-1-yl)-2-(3-methylpyrazin-2-yl)-2-azaspiro[3.4]octane]: the Emax is 60% and a half-maximal effect (EC50) was put at 100 nM.
In the same order, the values of `COc1ccccc1C1CCN([C@@H]2CCC3(C2)CN(c2cccnc2)C3)CC1` [Example 5K, (R)-6-(4-(2-methoxyphenyl)piperidin-1-yl)-2-(pyridin-3-yl)-2-azaspiro[3.4]octane] are 54% and 284 nM.
In the same order, the values of `Cc1ccc(N2CC3(CC[C@@H](N4CCC(c5ccccc5O[C@@H]5CCOC5)CC4)C3)C2)cn1` [Example 5L, (R)-2-(6-methylpyridin-3-yl)-6-(4-(2-(((R)-tetrahydrofuran-3-yl)oxy)phenyl)piperidin-1-yl)-2-azaspiro[3.4]octane] are 0% and over 25000 nM.
The corresponding values for `COc1ccccc1C1CCN([C@@H]2CCC3(C2)CN(c2ncnc(C)n2)C3)CC1` [Example 5M, (R)-6-(4-(2-methoxyphenyl)piperidin-1-yl)-2-(4-methyl-1,3,5-triazin-2-yl)-2-azaspiro[3.4]octane] are 0% and over 25000 nM.
Turning to `COc1ccccc1C1CCN([C@@H]2CCC3(C2)CN(c2ccc(Cl)nn2)C3)CC1` [Example 5N, (R)-2-(6-chloropyridazin-3-yl)-6-(4-(2-methoxyphenyl)piperidin-1-yl)-2-azaspiro[3.4]octane], the Emax was found to be 0% and the EC50 was over 25000 nM.
In the same order, the values of `COc1ccccc1C1CCN([C@@H]2CCC3(C2)CN(c2cccnn2)C3)CC1` [Example 5O, (R)-6-(4-(2-methoxyphenyl)piperidin-1-yl)-2-(pyridazin-3-yl)-2-azaspiro[3.4]octane] are 27% and 1340 nM.
In the case of `COc1ccc(Cl)cc1C1CCN([C@@H]2CCC3(C2)CN(c2ccnnc2)C3)CC1` [Example 5P, (R)-6-(4-(5-chloro-2-methoxyphenyl)piperidin-1-yl)-2-(pyridazin-4-yl)-2-azaspiro[3.4]octane], the Emax came to 60% and the EC50 stood at 196 nM.
On to `c1ccc(C2CCN([C@@H]3CCC4(C3)CN(c3ncncn3)C4)CC2)c(OCC2CCOCC2)c1` [Example 5Q, (R)-6-(4-(2-((tetrahydro-2H-pyran-4-yl)methoxy)phenyl)piperidin-1-yl)-2-(1,3,5-triazin-2-yl)-2-azaspiro[3.4]octane], for which the Emax turned out to be 0% and the EC50 is over 25000 nM.
`COc1ccccc1C1CCN([C@@H]2CCC3(C2)CN(c2cc(Cl)nnc2Cl)C3)CC1` [Example 5R, (R)-2-(3,6-dichloropyridazin-4-yl)-6-(4-(2-methoxyphenyl)piperidin-1-yl)-2-azaspiro[3.4]octane]: the Emax was determined as 41% and the EC50 amounted to 2030 nM.
The corresponding values for `COc1ccccc1C1CCN([C@@H]2CCC3(C2)CN(c2ccnnc2)C3)CC1` [Example 5S, (R)-6-(4-(2-methoxyphenyl)piperidin-1-yl)-2-(pyridazin-4-yl)-2-azaspiro[3.4]octane] are 45% and 1040 nM.
